Data on 29 molecules can be found in US5554620A, “Substituted 6,11-ethano-6,11-dihydrobenzo[b] quinolizinium salts and compositions and methods of use thereof” (Sterling Winthrop Inc., priority 1994, dated 1996).

One assay concerns the target PCP receptor. The assay can be described thus: [3H]TCP radioreceptor assay (binding to PCP recognition sites). The following applies: [3H]TCP approx. 1 nM, rat brain membranes; mean of at least two determinations. Set-up: species or system rat (male Sprague-Dawley, whole brain). As to the method: [^3 H]TCP Radioreceptor Assay
[^3 H]TCP binding to PCP recognition sites was performed as described by Vignon et al. Brain Research 1983, 280, 194-197. Male Sprague-Dawley rats were sacrificed by decapitation, and whole brains were homogenized in 10 volumes (wt/vol) of cold Tris-HCl buffer (50 mM, pH 7.7) using a Brinkmann Polytron (setting 6, 30 sec). The homogenate was centrifuged at 40,000×g for 10 min at 4° C. The supernatant was decanted, and the homogenization and centrifugation steps were repeated twice as described above. Following this, the pellet was resuspended in Tris-HCl (5 mM, pH 7.7) at a tissue concentration of 0.5-0.75 g/mL, and one mL aliquots were frozen at -70° C. until use. The binding characteristics for PCP recognition sites were not altered by the freezing of membrane suspensions.
On the day of the assay, membrane aliquots were thawed, resuspended in fresh 5 mM Tris-HCl buffer at a tissue concentration of 1 mg/mL, and stored on ice until use. Each assay tube contained 100 μl of [^3 H]TCP at a final concentration of approximately 1 nM, 100 μL of various concentrations of the compounds of interest, 500 μL of the tissue suspension and 300 μL of buffer to a final assay volume of 1 mL and a final protein concentration of 0.5 mg/tube. Non-specific binding was defined by addition of a final concentration of 100 μM PCP to blank tubes. All tubes were incubated at room temperature for 25 min before termination of the reaction by rapid filtration over Whatman GF/B glass fiber filters that had been presoaked in a solution of 0.5% polyethylenimine for at least 1 hr prior to use. Filters were washed with three 4 mL volumes of cold Tris buffer. Following addition of scintillation cocktail, the amount of bound radioactivity was determined by liquid scintillation spectrometry using a Beckman LS 5000TA liquid scintillation counter with an efficiency for tritium of approximately 55%. Inhibition constants (Ki values) were calculated using the EBDA/LIGAND program (McPherson, J. Pharmacol. Meth. 1985, 14, 213-228), purchased from ElsevierBiosoft, Inc. Results are reported as the Ki values (in nM) which are expressed as the mean of at least two separate determinations; or as a percent (%) inhibition of binding at 10 μM.
On to “6,11-ethano-12,12-di(3-furyl)-10-stearyloxy-6,11-dihydrobenzo[b]quinolizinium chloride [Example 163]”, for which the inhibitory constant (Ki) came to 7.54 nM.

On to `COc1cccc(C23c4ccccc4CC2C2c4ccccc4C3c3cccc[n+]32)c1` (single isomer, unassigned) [5(d), 6,11[2',3']-3'-(3-methoxyphenyl)-indanyl]16,11-dihydrobenzo[b]quinolizinium hexafluorophosphate], for which the Ki was found to be 22 nM. Against the preceding molecule, the Ki is about 2.9-fold higher.

As for `CC12CC(c3ccccc3)(c3ccccc3)C(c3ccccc31)c1cccc[n+]12` (single isomer, unassigned) [20(h), 6,11-ethano-12,12-diphenyl-6-methyl-6,11-dihydrobenzo[b]quinolizinium chloride 1/2 hydrate], the Ki came to 7.15 nM.

`CCOC1(c2ccoc2)C2c3ccccc3C(C1C)[n+]1ccccc12` (single isomer, unassigned) [65(c), 6,11-ethano-12-(3-furyl)-12-ethoxy-13-methyl-6,11-dihydrobenzo[b]quinolizinium hexafluorophosphate] returned a Ki of 2.8 nM.

The molecule `c1ccc2c(c1)C1C3CCc4occc4C3(c3ccoc3)C2c2cccc[n+]21` (single isomer, unassigned) [69(c), 6,11[[5',4']-4'-(3-furyl)-4,5,6,7-tetrahydrobenzofuryl]-6,11-dihydrobenzo[b]quinolizinium perchlorate] yielded an inhibitory constant (Ki) of 0.9 nM.

On to `c1ccc2c(c1)CC1C2C2c3ccccc3C1[n+]1ccccc12` (single isomer, unassigned) [Example 2(a), 6,11[[2',3']-indanyl]6,11-dihydrobenzo[b]quinolizinium chloride], for which the inhibition constant (Ki) was found to be 123 nM.

For `c1ccc2c(c1)CC1C2C2c3ccccc3C1[n+]1ccccc12` (single isomer, unassigned) [Example 2(b), 6,11[[2',3']indanyl]6,11-dihydrobenzo[b]quinolizinium chloride], the affinity, expressed as Ki, was 262 nM.

With `C#CC1(c2ccccc2)CC2c3ccccc3C1c1cccc[n+]12` (single isomer, unassigned) [Example 56, 6,11-ethano-12-phenyl-12-ethynyl-6,11-dihydrobenzo[b]quinolizinium hexafluorophosphate], the affinity, expressed as Ki, was 56 nM.

Take `Cc1ccc(S(=O)(=O)n2nccc2C2(c3ccoc3)CC3c4ccccc4C2c2cccc[n+]23)cc1` (single isomer, unassigned) [Example 184(c), 6,11-ethano-12-(3-furyl)-12-[1-(p-toluenesulfonyl)pyrazol-5-yl]-6,11-dihydrobenzo[b]quinolizinium bromide]: affinity was put at a Ki of 12900 nM.

For `O=[N+]([O-])c1cccc2c1C1CC(c3ccoc3)(c3ccoc3)C2c2cccc[n+]21.[O-][Cl+3]([O-])([O-])[O-]` (single isomer, unassigned) [Example 201(c), 6,11-ethano-12,12-di(3-furyl)-7-nitro-6,11-dihydrobenzo[b]quinolizinium perchlorate], the affinity corresponds to a Ki of 3430 nM.

For the molecule `O=[N+]([O-])c1cccc2c1C1c3cccc[n+]3C2CC1(c1ccoc1)c1ccoc1.[O-][Cl+3]([O-])([O-])[O-]` (single isomer, unassigned) [Example 201(d), 6,11-ethano-12,12-di(3-furyl)-10-nitro-6,11-dihydrobenzo[b]quinolizinium perchlorate], the Ki turned out to be 49.2 nM.

As to `COc1ccc2c(c1)C1(c3ccccc3)C3c4ccccc4C(C1C2)[n+]1ccccc13` (centres unmarked) [3(d), 6,11[[2',3']-3'-phenyl-6'-methoxyindanyl]6,11-dihydrobenzo[b]quinoliziniumhexafluorophosphate], the Ki was 14.1 nM.

`COc1cccc2c1CC1C3c4ccccc4C(c4cccc[n+]43)C21c1ccccc1` (centres unmarked) [4(E), 6,11[[2',3']-3'-phenyl-7'-methoxy-indanyl]16,11-dihydrobenzo[b]quinolizinium hexafluoro-phosphate] registered a Ki of 5870 nM.

Turning to `COc1cccc(C23c4ccccc4CC2C2c4ccccc4C3c3cccc[n+]32)c1` (centres unmarked) [5(c), 6.11[[2',3']-3'-(3-methoxyphenyl)-indanyl]6,11-dihydrobenzo[b]quinolizinium hexafluorophosphate], the Ki was 13.3 nM.

Regarding `c1ccc2c(c1)CC1C3c4ccccc4C(c4cccc[n+]43)C21c1ccoc1` (centres unmarked) [6(c), 6,11[[2',3']-3'-(3-furyl)-indanyl]6,11-dihydrobenzo[b]quinolizinium hexafluorophosphate], the affinity, expressed as Ki, was 1.19 nM.

Take `c1ccc2c(c1)C1C3CCc4occc4C3(c3ccoc3)C2c2cccc[n+]21` (centres unmarked) [7(c), 6,11-[5',4"]-4'-(3-furyl)-4',5',6',7'-tetrahydrobenzofuryl]-6,11-dihydrobenzo[b]quinolizinium chloride]: the Ki turned out to be 1.1 nM.

As to `Cc1noc2c1CCC1C3c4ccccc4C(c4cccc[n+]43)C21c1ccoc1` (centres unmarked) [8(c), 6,11[[6',7']-7'-(3-furyl)-3'-methyl-4',5',6',7'-tetrahydrobenzisoxazol]6,11-dihydrobenzo[b]quinolizinium hexafluorophosphate], the affinity corresponds to a Ki of 117 nM.

In turn, `CCOC12c3ccoc3CCC1C1c3ccccc3C2c2cccc[n+]21` (centres unmarked) [9(b), 6,11[[5',4!]-4'-ethoxy-4',5',6',7'-tetrahydrobenzofuryl]-6,11-dihydrobenzo[b]quinolizinium hexafluorophosphate] showed an inhibitory constant (Ki) of 5.9 nM.

Take `c1ccc2c(c1)C1C3CCc4occc4C3(c3cc4ccccc4o3)C2c2cccc[n+]21` (centres unmarked) [10(c-G), 6,11[[5',4']-4'-(2-benzofuryl)-4',5',6',7'-tetrahydrobenzofuryl]6,11-dihydrobenzo[b]quinolizinium hexafluorophosphate]: the Ki stood at 4450 nM.

`c1ccc2c(c1)C1C3CCc4occc4C3(c3cc4ccccc4o3)C2c2cccc[n+]21` (centres unmarked) [10(c-k), 6,11[[5',4']-4'-(2-benzofuryl)-4',5',6',7'-tetrahydro-benzofuryl]6,11-dihydrobenzo[b]quinolizinium hexafluorophosphate] returned an inhibition constant (Ki) of 696 nM.

On to `CCOC1(c2ccoc2)CC2c3ccccc3C1c1cccc[n+]12` (centres unmarked) [11(d), 6,11-ethano-12-(3-furyl)-12-ethoxy-6,11-dihydrobenzo[b]quinolizinium hexafluorophosphate], for which the affinity corresponds to a Ki of 26 nM.

The molecule `CCOC1(c2cc(C)oc2C)CC2c3ccccc3C1c1cccc[n+]12` (centres unmarked) [12(b), 6,11-ethano-12-(2,5-dimethyl)-3-furyl]-12-ethoxy-6,11-dihydrobenzo[b]quinolizinium hexafluorophosphate] returned a Ki of 253 nM.

Turning to `CCOC1(c2ccoc2)CC2(C)c3ccccc3C1c1cccc[n+]12` [13(b), 6,11-ethano-12-(3-furyl)-12-ethoxy-6-methyl-6,11-dihydrobenzo[b]quinolizinium monobenzoyl-D-tartarate], the affinity, expressed as Ki, was 45 nM.

For `c1ccc2c(c1)C1C3CCc4sccc4C3(c3ccoc3)C2c2cccc[n+]21` (centres unmarked) [15(c), 6,11[[5',4']-4'-(3-furyl)-4',5',6',7'-tetrahydrothianaphthyl]6,11]-dihydrobenzo[b]quinolizinium hexafluorophosphate], the inhibitory constant (Ki) turned out to be 1.4 nM.

For `c1ccc(C2(c3ccccc3)C3c4ccccc4C([n+]4ccccc43)C23CC3)cc1` (centres unmarked) [22(b), 6,11-ethano-12,12-diphenyl-13,13-spirocyclopropyl-6,11-dihydrobenzo[b]quinolizinium chloride], the affinity corresponds to a Ki of 9.07 nM.

In turn, `c1ccc(C2(c3ccccn3)CC3c4ccccc4C2c2cccc[n+]23)nc1` (centres unmarked) [24(b), 6,11-ethano-12,12-di-(2-pyridyl)-6,11-dihydrobenzo[b]quinolizinium chloride hydrate] registered a Ki of 8.39 nM. The Ki values of the last two molecules are within 1.5-fold of each other.

Still in this assay, the particulars now being: inhibition of [3H]TCP binding at 10 μM.
`Cc1ccc(S(=O)(=O)n2nccc2C2(c3ccoc3)CC3c4ccccc4C2c2cccc[n+]23)cc1.[Br-]` (single isomer, unassigned) [Example 184(d), 6,11-ethano-12-(3-furyl)-12-[1-(p-toluenesulfonyl)pyrazol-5-yl]-6,11-dihydrobenzo[b]quinolizinium bromide]: the “[3H]TCP percent inhibition @ 10 μm” value is 53%.

For `Cc1ccc(S(=O)(=O)n2nccc2C2(c3ccoc3)CC3c4cccc(O)c4C2c2cccc[n+]23)cc1` (single isomer, unassigned) [Example 199(a), 6,11-ethano-12-(3-furyl)-12-[1-(p-toluenesulfon-yl)-pyrazol-5-yl]-10-hydroxy-6,11-dihydrobenzo[b]quinolizinium perchlorate], the “[3H]TCP percent inhibition @ 10 μm” value worked out at 27%.

Turning to `Brc1ccc(C2(c3ccc(Br)cc3)CC3c4ccccc4C2c2cccc[n+]23)cc1` (centres unmarked) [23(c), 6,11-ethano-12,12-di-p-bromophenyl-6,11-dihydrobenzo[b]quinolizinium chloride], the “[3H]TCP percent inhibition @ 10 μm” value was determined as 22%.
